Test [1] has as its system Staphylococcus aureus. The test can be described thus: Antibacterial activity against methicillin-sensitive Staphylococcus aureus […] 8545 after 16 to 20 hrs by broth microdilution assay. The format is functional.
Test [2] deals with Staphylococcus aureus. Briefly: Antibacterial activity against methicillin-resistant Staphylococcus aureus IDRL 6169 after 16 to 20 hrs by broth microdilution assay. The format is functional. For orientation: Broth dilution looks for growth in wells or tubes with falling amounts of substance.
Test [3] concerns Staphylococcus aureus. The test can be described thus: Antibacterial activity against methicillin-resistant Staphylococcus aureus ATCC 43300 after 16 to 20 hrs by broth microdilution assay. The format is functional.
The next test relates to Nucleic Acid. Briefly: Binding affinity to relaxed plasmid DNA (unknown origin) assessed as DNA intercalation at 4 to 100 uM after 10 mins by gel electrophoresis in presence of human topoisomerase 1. The format is nucleic-acid assay.

One may read the MIC99 as the lowest concentration that inhibits either 99% of growth or 99% of the strains tested, depending on the study. A low value points to greater potency.

Values after ≈ are worked out from the molar mass of the structure shown. Active and inactive are the calls of the source. The rule behind the calls is not given here. A value given as a limit tells only on which side of the number the result lay.

As to `CCCCCCCCCCCCCCNc1c2ccccc2nc2cc(C(=O)N3CCN(C)CC3)ccc12`, the MIC99 was 6.25 µM (≈ 3.23 µg/mL) in the test with Staphylococcus aureus [1], 6.13 µM (≈ 3.17 µg/mL) against Staphylococcus aureus [2] and 5.82 µM (≈ 3.01 µg/mL) in the test on Staphylococcus aureus [3].
The matching figures for `CCCCCCCNc1c2ccccc2nc2cc(C(=O)N3CCN(C)CC3)ccc12`: over 100 µM, over 100 µM and over 100 µM.
The matching figures for `CCCCCCNc1c2ccccc2nc2cc(C(=O)N3CCN(C)CC3)ccc12`: over 100 µM, over 100 µM and over 100 µM.
For the molecule `CCCNc1c2ccccc2nc2cc(C(=O)N3CCN(C)CC3)ccc12`, the MIC99 in the test on Staphylococcus aureus [1], against Staphylococcus aureus [2] and in the test with Staphylococcus aureus [3] was over 100 µM throughout. Besides, in the test with Nucleic Acid, the outcome was Active.
Take `CCCCCCCCCCNc1c2ccccc2nc2cc(C(=O)N3CCN(C)CC3)ccc12`: the MIC99 was found to be 12 µM (≈ 5.51 µg/mL) against Staphylococcus aureus [1], 10.7 µM (≈ 4.95 µg/mL) against Staphylococcus aureus [2] and 12.2 µM (≈ 5.6 µg/mL) against Staphylococcus aureus [3]. For the same molecule, in the test on Nucleic Acid, the result was inactive.
On the same counts, the results for `CCCNc1c2ccccc2nc2ccccc12` are over 100 µM, over 100 µM, over 100 µM and “Active”.
With `CCCCCCCCCCCNc1c2ccccc2nc2ccccc12`, the figures for the MIC99 in the test with Staphylococcus aureus [1], in the test on Staphylococcus aureus [2] and against Staphylococcus aureus [3] were 3.81 µM (≈ 1.33 µg/mL), 2.73 µM (≈ 0.951 µg/mL) and 2.01 µM (≈ 0.701 µg/mL), respectively.
Regarding `CCCCCCCCCCCCCCCCNc1c2ccccc2nc2ccccc12`, the MIC99 in the test on Staphylococcus aureus [1] is 26.2 µM (≈ 11 µg/mL); in the test on Staphylococcus aureus [2], 10.1 µM (≈ 4.25 µg/mL); against Staphylococcus aureus [3], 24.7 µM (≈ 10.3 µg/mL).
With `CCCCCCNc1c2ccccc2nc2ccccc12`, the MIC99 was over 100 µM against Staphylococcus aureus [1], 46.9 µM (≈ 13.1 µg/mL) against Staphylococcus aureus [2] and 50.6 µM (≈ 14.1 µg/mL) in the test on Staphylococcus aureus [3].
The matching figures for `CCCCCCCNc1c2ccccc2nc2ccccc12`: 27.5 µM (≈ 8.05 µg/mL), 22.9 µM (≈ 6.68 µg/mL) and 24.5 µM (≈ 7.16 µg/mL).
On the same counts, the results for `CCCCCCCCCNc1c2ccccc2nc2ccccc12` are 5.95 µM (≈ 1.91 µg/mL), 3.59 µM (≈ 1.15 µg/mL) and 3.19 µM (≈ 1.02 µg/mL).
On to `CCCCCNc1c2ccccc2nc2ccccc12`, for which the MIC99 against Staphylococcus aureus [1], against Staphylococcus aureus [2] and in the test on Staphylococcus aureus [3] was over 100 µM in each case.
For the molecule `CCCCCCCCCCCCCCCNc1c2ccccc2nc2ccccc12`, the MIC99 was determined as 5.69 µM (≈ 2.3 µg/mL) against Staphylococcus aureus [1], 3.21 µM (≈ 1.3 µg/mL) against Staphylococcus aureus [2] and 6.1 µM (≈ 2.47 µg/mL) with Staphylococcus aureus [3].
The matching figures for `CCCCCCCCCCCCCNc1c2ccccc2nc2ccccc12`: 2.61 µM (≈ 0.983 µg/mL), 2.8 µM (≈ 1.05 µg/mL) and 3.04 µM (≈ 1.14 µg/mL).
On the same counts, the results for `CCCCCCCCNc1c2ccccc2nc2cc(C(=O)N3CCN(C)CC3)ccc12` are over 100 µM, over 100 µM and over 100 µM.
`CCCCCCCCCCCCNc1c2ccccc2nc2ccccc12`: the results for the MIC99 against Staphylococcus aureus [1], with Staphylococcus aureus [2] and in the test on Staphylococcus aureus [3] were 2.88 µM (≈ 1.04 µg/mL), 2.73 µM (≈ 0.99 µg/mL) and 2.88 µM (≈ 1.04 µg/mL), respectively.
On to `CCCCCCCCCCCCCNc1c2ccccc2nc2cc(C(=O)N3CCN(C)CC3)ccc12`, for which the values for the MIC99 with Staphylococcus aureus [1], in the test on Staphylococcus aureus [2] and against Staphylococcus aureus [3] were 3.57 µM (≈ 1.79 µg/mL), 3.07 µM (≈ 1.54 µg/mL) and 2.91 µM (≈ 1.46 µg/mL), respectively.
On to `CCCCNc1c2ccccc2nc2cc(C(=O)N3CCN(C)CC3)ccc12`, for which the MIC99 in the test on Staphylococcus aureus [1], in the test with Staphylococcus aureus [2] and against Staphylococcus aureus [3] was over 100 µM in each case.
Turning to `CCCCCCCCCCCNc1c2ccccc2nc2cc(C(=O)N3CCN(C)CC3)ccc12`, the values for the MIC99 with Staphylococcus aureus [1], in the test on Staphylococcus aureus [2] and in the test on Staphylococcus aureus [3] were 6.23 µM (≈ 2.96 µg/mL), 6.14 µM (≈ 2.91 µg/mL) and 3.61 µM (≈ 1.71 µg/mL), respectively.
The matching figures for `CCCCCCCCCCCCCCCNc1c2ccccc2nc2cc(C(=O)N3CCN(C)CC3)ccc12`: 5.91 µM (≈ 3.14 µg/mL), 8.59 µM (≈ 4.56 µg/mL) and 4.59 µM (≈ 2.44 µg/mL).
The matching figures for `CCCCCNc1c2ccccc2nc2cc(C(=O)N3CCN(C)CC3)ccc12`: over 100 µM, over 100 µM and over 100 µM.
The matching figures for `CCCCCCCCNc1c2ccccc2nc2ccccc12`: 10.3 µM (≈ 3.14 µg/mL), 10.8 µM (≈ 3.31 µg/mL) and 8.54 µM (≈ 2.62 µg/mL).
As for `CCCCCCCCCCCCCCCCNc1c2ccccc2nc2cc(C(=O)N3CCN(C)CC3)ccc12`, the values for the MIC99 with Staphylococcus aureus [1], against Staphylococcus aureus [2] and with Staphylococcus aureus [3] were 11.6 µM (≈ 6.31 µg/mL), 9.06 µM (≈ 4.94 µg/mL) and 6.23 µM (≈ 3.39 µg/mL), respectively.
The matching figures for `CCCCCCCCCNc1c2ccccc2nc2cc(C(=O)N3CCN(C)CC3)ccc12`: 35.5 µM (≈ 15.8 µg/mL), 23.7 µM (≈ 10.6 µg/mL) and 22.7 µM (≈ 10.1 µg/mL).
The matching figures for `CCCCCCCCCCCCNc1c2ccccc2nc2cc(C(=O)N3CCN(C)CC3)ccc12`: 4.8 µM (≈ 2.35 µg/mL), 5.87 µM (≈ 2.87 µg/mL) and 6.28 µM (≈ 3.07 µg/mL).
On the same counts, the results for `CCCCCCCCCCCCCCNc1c2ccccc2nc2ccccc12` are 2.98 µM (≈ 1.16 µg/mL), 2.15 µM (≈ 0.84 µg/mL) and 3.07 µM (≈ 1.2 µg/mL).
Consider `CCCCNc1c2ccccc2nc2ccccc12`, for which the MIC99 against Staphylococcus aureus [1], against Staphylococcus aureus [2] and against Staphylococcus aureus [3] was over 100 µM throughout.
As to `CCCCCCCCCCNc1c2ccccc2nc2ccccc12`, the values for the MIC99 against Staphylococcus aureus [1], against Staphylococcus aureus [2] and in the test with Staphylococcus aureus [3] were 2.61 µM (≈ 0.873 µg/mL), 3.29 µM (≈ 1.1 µg/mL) and 2.19 µM (≈ 0.733 µg/mL), respectively. Moreover, in the test with Nucleic Acid, the result was inactive.

These data come from ChEMBL document CHEMBL3297720, “Synthesis and evaluation of N-alkyl-9-aminoacridines with antibacterial activity” (2014).
